According to the supplement of paper PMC10307832:

Key:
Experiment in all cases: relative viability (nuclei count vs DMSO), 5 days (fraction); higher = more cells survive
[1] = compound: CC(=O)Nc1cccc(-n2c(=O)n(C3CC3)c(=O)c3c(Nc4ccc(I)cc4F)n(C)c(=O)c(C)c32)c1 [Trametinib] + Cc1nc(NC(=O)N2CCC[C@H]2C(N)=O)sc1-c1ccnc(C(C)(C)C(F)(F)F)c1 [Alpelisib] (partner 2 µM)
Method in brief: (§1)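 Relative viability was taken as the ratio of nuclei in treated wells to nuclei in vehicle wells. Lung cancer cell lines in 1536-well plates received compounds by pin tool one day after seeding, either one drug alone or a fixed anchor-drug dose plus five library-drug doses (not always all listed) in √10 steps. Nuclei were counted on 4× images after 5 days of treatment, and values are medians of duplicate plates.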

[2] = compound: CN1C=C(C2=CC=CC=C21)/C=C\3/C4=C(C=CC=N4)NC3=O + O=C(c1cc(Cc2n[nH]c(=O)c3ccccc23)ccc1F)N1CCN(C(=O)C2CC2)CC1 [Olaparib] (partner 8 µM)
Method in brief: as §1

[3] = compound: CC(=O)Nc1cccc(-n2c(=O)n(C3CC3)c(=O)c3c(Nc4ccc(I)cc4F)n(C)c(=O)c(C)c32)c1 [Trametinib] + Cc1cc(Nc2cc(N3CCN(C)CC3)nc(Sc3ccc(NC(=O)C4CC4)cc3)n2)n[nH]1 [Tozasertib] (partner 0.1 µM)
Method in brief: as §1

[4] = compound: CN1C=C(C2=CC=CC=C21)/C=C\3/C4=C(C=CC=N4)NC3=O + CC1(C)CCC(c2ccc(Cl)cc2)=C(CN2CCN(c3ccc(C(=O)NS(=O)(=O)c4ccc(N[C@H](CCN5CCOCC5)CSc5ccccc5)c(S(=O)(=O)C(F)(F)F)c4)cc3)CC2)C1 [Navitoclax] (partner 0.5 µM)
Method in brief: as §1

Row | Cell Line | relative viability ([1]; first compound 0.0025 µM) | relative viability ([1]; first compound 0.007906 µM) | relative viability ([1]; first compound 0.025 µM) | relative viability ([1]; first compound 0.07906 µM) | relative viability ([1]; first compound 0.25 µM) | relative viability ([2]; first compound 0.02 µM) | relative viability ([2]; first compound 0.06325 µM) | relative viability ([2]; first compound 0.6325 µM) | relative viability ([2]; first compound 2 µM) | relative viability ([3]; first compound 0.0025 µM) | relative viability ([3]; first compound 0.007906 µM) | relative viability ([3]; first compound 0.025 µM) | relative viability ([3]; first compound 0.07906 µM) | relative viability ([3]; first compound 0.25 µM) | relative viability ([2]; first compound 0.2 µM) | relative viability ([4]; first compound 0.02 µM) | relative viability ([4]; first compound 0.06325 µM) | relative viability ([4]; first compound 0.2 µM) | relative viability ([4]; first compound 0.6325 µM) | relative viability ([4]; first compound 2 µM)
1 | NCI-H650 | 1.31 | 1.42 | 1.38 | 1.35 | 0.71 | 0.464 | 0.418 | 0.434 | 0.411 | 0.733 | 0.774 | 0.621 | 0.569 | 0.329 |  |  |  |  |  | 
2 | IA-LM | 0.656 | 0.393 | 0.129 | 0.104 | 0.109 | 0.726 | 0.726 | 0.896 | 0.802 |  |  |  |  |  | 0.749 | 1.05 | 0.833 | 0.731 | 0.749 | 0.541
3 | A-427 | 0.91 | 1.02 | 0.437 | 0.607 | 0.269 | 0.708 | 0.606 | 0.71 | 0.76 | 0.217 | 0.159 | 0.158 | 0.166 | 0.173 |  | 0.975 | 0.887 |  | 0.984 | 1.06
4 | NCI-H2347 | 0.96 | 0.552 | 0.346 | 0.38 | 0.36 | 0.491 | 0.503 | 0.565 | 0.616 | 0.509 | 0.33 | 0.176 | 0.154 | 0.185 | 0.539 | 0.826 | 0.859 | 0.743 | 0.764 | 0.834
5 | NCI-H1793 | 0.578 | 0.457 | 0.28 | 0.425 | 0.29 | 0.678 | 0.813 | 0.817 | 0.63 | 0.281 | 0.226 | 0.253 | 0.164 | 0.205 | 0.72 | 0.425 | 0.415 | 0.267 | 1.05 | 0.934
6 | NCI-H1651 | 0.901 | 0.864 | 0.775 | 0.597 | 0.66 | 0.18 | 0.164 | 0.197 | 0.217 | 0.666 | 0.555 | 0.541 | 0.526 | 0.498 | 0.182 | 0.955 | 0.969 | 1.24 | 1.05 | 1.15
7 | HCC-78 | 0.304 | 0.242 | 0.226 | 0.205 | 0.224 | 0.78 | 0.773 | 0.754 | 0.818 | 0.426 | 0.416 | 0.38 | 0.452 | 0.36 | 0.688 | 0.692 | 0.71 | 0.589 | 0.778 | 0.758
8 | NCI-H23 | 0.635 | 0.509 | 0.264 | 0.349 | 0.208 | 0.253 | 0.357 | 0.293 | 0.262 | 0.339 | 0.211 | 0.283 | 0.248 | 0.213 | 0.218 | 0.558 | 0.764 |  | 0.807 | 0.931
9 | LOU-NH91 | 0.674 | 0.601 | 0.619 | 0.545 | 0.4 | 0.906 | 0.871 | 0.841 | 0.901 | 0.639 | 0.609 | 0.592 | 0.548 | 0.399 | 0.883 | 0.555 | 0.603 | 0.596 | 0.602 | 0.678
10 | LXF-289 | 0.961 | 0.894 | 0.758 | 0.672 | 0.495 | 1.09 | 0.998 | 1.07 | 1.1 | 0.198 | 0.174 | 0.208 | 0.181 | 0.143 | 1.19 | 0.962 | 0.908 | 0.97 | 1.01 | 1.01
11 | NCI-H460 | 0.417 | 0.146 | 0.115 | 0.0733 | 0.0121 | 0.463 | 0.417 | 0.435 | 0.367 | 0.267 | 0.262 | 0.278 | 0.152 | 0.0343 | 0.491 | 1.27 | 1.21 | 1.39 |  | 1.43
12 | NCI-H1792 | 0.644 | 0.53 | 0.537 | 0.382 | 0.255 | 0.502 | 0.349 | 0.254 | 0.376 |  |  |  |  |  | 0.32 | 0.343 | 0.642 | 0.529 |  | 0.496
13 | EMC-BAC-2 | 0.645 | 0.641 | 0.562 | 0.568 | 0.497 | 0.354 | 0.445 | 0.418 | 0.383 | 0.369 | 0.354 | 0.41 | 0.457 | 0.328 | 0.488 | 0.924 | 1.12 | 1.25 | 1.13 | 1.35
14 | CAL-12T | 1.14 | 0.79 | 0.452 | 0.45 | 0.34 | 0.729 | 0.587 | 0.75 | 0.625 | 0.275 | 0.273 | 0.196 | 0.199 | 0.202 | 0.617 | 1.22 | 1.11 | 1.22 | 1.19 | 1.14
15 | ChaGo-K-1 |  |  |  |  |  | 0.426 | 0.405 | 0.387 | 0.339 | 0.232 | 0.223 | 0.214 | 0.201 | 0.191 | 0.414 | 0.816 | 0.939 |  | 0.902 | 0.801
16 | COR-L 105 | 0.808 | 1.03 | 0.352 | 0.419 | 0.389 | 0.522 | 0.459 | 0.585 | 0.967 | 0.287 | 0.387 | 0.338 | 0.31 | 0.223 | 0.478 | 0.552 | 0.563 | 0.711 | 0.727 | 0.873
17 | NCI-H1944 | 0.716 | 0.603 | 0.532 | 0.463 | 0.325 | 0.382 | 0.368 | 0.377 | 0.403 | 0.262 | 0.21 | 0.185 | 0.185 | 0.177 |  | 1.11 | 1.01 |  | 1.09 | 1.13
